This is an account of results in patent publication US20230271954A1 (Gossamer Bio Services, Inc., priority 2020, published 2023).

As a reminder, the pIC50 is the IC50 on a negative log10 scale, so that one unit is a factor of ten.

The target in assay [1] is DGKα (Homo sapiens, UniProt P23743). The experiment in a line: DGKα biochemical assay (ADP-Glo). The settings on record: read-out: DGK α IC50. The gist of the method:
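ADP-Glo kinase assay using OAG/PS (1:2) lipid substrate, sonicated, in HEPES pH 7.0 buffer with MgCl2, CaCl2, DTT, BSA, Triton X-100. Enzyme preincubated with compound 30 min at RT; substrate with ATP (DGKα: 400 μM) added, 45 min RT. Luminescence read; % inhibition vs DMSO and no-enzyme controls.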
(ADP-Glo turns the ADP formed in a reaction into a luminescent signal.)

The target in assay [2] is T1, DGKζ (Homo sapiens, UniProt Q13574).
T1 construct: purchased Carna 12-110
T1 sequence (Q13574 1-929 isoform Q13574-4): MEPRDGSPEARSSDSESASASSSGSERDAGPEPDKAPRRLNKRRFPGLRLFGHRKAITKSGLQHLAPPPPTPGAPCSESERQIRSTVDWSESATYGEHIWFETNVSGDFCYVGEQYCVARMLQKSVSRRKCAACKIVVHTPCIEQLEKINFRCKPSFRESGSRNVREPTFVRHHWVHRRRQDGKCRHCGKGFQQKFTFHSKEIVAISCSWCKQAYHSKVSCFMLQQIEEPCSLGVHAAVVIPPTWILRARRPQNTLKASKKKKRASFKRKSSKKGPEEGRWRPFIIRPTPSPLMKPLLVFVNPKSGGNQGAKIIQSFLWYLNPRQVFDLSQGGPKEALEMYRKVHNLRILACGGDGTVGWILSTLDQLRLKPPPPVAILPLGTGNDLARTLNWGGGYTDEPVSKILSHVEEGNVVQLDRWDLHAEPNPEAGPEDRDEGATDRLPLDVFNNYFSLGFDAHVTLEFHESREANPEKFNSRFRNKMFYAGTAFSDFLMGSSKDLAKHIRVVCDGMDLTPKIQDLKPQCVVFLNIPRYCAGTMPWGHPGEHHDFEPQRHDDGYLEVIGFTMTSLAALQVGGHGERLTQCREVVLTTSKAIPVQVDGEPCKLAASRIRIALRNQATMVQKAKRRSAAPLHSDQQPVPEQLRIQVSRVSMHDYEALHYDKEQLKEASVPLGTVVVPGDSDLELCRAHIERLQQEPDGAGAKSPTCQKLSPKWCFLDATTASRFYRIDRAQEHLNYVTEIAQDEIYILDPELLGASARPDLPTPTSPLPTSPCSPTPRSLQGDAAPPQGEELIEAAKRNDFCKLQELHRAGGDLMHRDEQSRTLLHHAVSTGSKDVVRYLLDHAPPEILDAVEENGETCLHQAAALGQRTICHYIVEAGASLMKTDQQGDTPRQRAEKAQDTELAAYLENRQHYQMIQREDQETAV
The experiment in a line: DGKζ biochemical assay (ADP-Glo). The settings on record: read-out: DGK ζ IC50.

pIC50: −log10 of the molar value.

Chain of DGKα (P23743 whole entry): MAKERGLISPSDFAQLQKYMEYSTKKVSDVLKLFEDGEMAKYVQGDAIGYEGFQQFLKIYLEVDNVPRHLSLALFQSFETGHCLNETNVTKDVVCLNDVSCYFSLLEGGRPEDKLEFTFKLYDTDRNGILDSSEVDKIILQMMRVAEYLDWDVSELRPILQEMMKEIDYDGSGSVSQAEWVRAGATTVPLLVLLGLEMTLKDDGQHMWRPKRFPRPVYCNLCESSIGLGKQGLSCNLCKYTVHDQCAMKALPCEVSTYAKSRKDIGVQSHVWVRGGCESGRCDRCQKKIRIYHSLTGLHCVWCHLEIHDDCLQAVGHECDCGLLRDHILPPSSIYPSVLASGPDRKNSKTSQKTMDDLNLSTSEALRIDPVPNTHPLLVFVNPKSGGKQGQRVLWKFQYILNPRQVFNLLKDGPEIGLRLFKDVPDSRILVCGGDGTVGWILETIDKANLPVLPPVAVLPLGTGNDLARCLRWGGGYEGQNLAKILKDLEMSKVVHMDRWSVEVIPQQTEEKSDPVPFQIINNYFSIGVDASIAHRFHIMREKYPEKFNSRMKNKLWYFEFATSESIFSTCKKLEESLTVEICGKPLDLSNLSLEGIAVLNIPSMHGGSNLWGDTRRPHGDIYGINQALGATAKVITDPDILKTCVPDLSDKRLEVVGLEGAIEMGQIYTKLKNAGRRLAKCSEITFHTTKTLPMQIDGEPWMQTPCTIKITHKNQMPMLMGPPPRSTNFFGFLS

For `Cn1c(=O)cc(N(C)[C@H]2CC[C@H](N(CC3CCC3)c3ccc(F)cc3)CC2)c2nc(C#N)ccc21` [Example 44, trans-8-((-4-((cyclobutylmethyl)(4-fluorophenyl)amino)cyclohexyl)(methyl)amino)-5-methyl-6-oxo-5,6-dihydro-1,5-naphthyridine-2-carbonitrile], the negative-log IC50 (pIC50) in assay [1] was 6.00 to 7.00; in assay [2] it was at most 6.00.

Take `Cn1c(=O)cc(N(C)[C@H]2CC[C@@H](N(CC3COCCO3)c3cccc4c3OCO4)CC2)c2nc(C#N)ccc21` (single isomer, unassigned) [Example 196, cis-8-((-4-((((R or S)-1,4-dioxan-2-yl)methyl) (benzo[d][1,3]dioxol-4-yl)amino)cyclohexyl)(methyl)amino)-5-methyl-6-oxo-5,6-dihydro-1,5-naphthyridine-2-carbonitrile]: the pIC50 in assay [1] was at most 6.00; in assay [2], 6.00 to 7.00.

`Cn1c(=O)cc(N(C)[C@H]2CC[C@H](N(c3ccc(F)cc3O)C3CC3)CC2)c2nc(C#N)ccc21` [Example 3X, trans-8-((4-(cyclopropyl(4-fluoro-2-hydroxyphenyl)amino)cyclohexyl)(methyl)amino)-5-methyl-6-oxo-5,6-dihydro-1,5-naphthyridine-2-carbonitrile]: the pIC50 in assay [1] was 6.00 to 7.00; in assay [2], at most 6.00.

As for `Cn1c(=O)c(C#N)c(N(C)[C@H]2CC[C@@H](N(CC3CC3)c3cccc(F)c3)CC2)c2nc(Cl)ccc21` [Example 22, cis-6-chloro-4-((4-((cyclopropylmethyl)(3-fluorophenyl)amino)cyclohexyl)(methyl)amino)-1-methyl-2-oxo-1,2-dihydro-1,5-naphthyridine-3-carbonitrile], the negative-log IC50 (pIC50) in assay [1] and in assay [2] was at most 6.00 throughout.

In the case of `Cn1c(=O)c(C#N)c(N(C)[C@H]2CC[C@@H](N(C[C@@H]3CCOC3)c3ccc(F)cc3)CC2)c2nc(C#N)ccc21` [Example 67], the pIC50 in assay [1] was 7.00 to 8.00; in assay [2], 6.00 to 7.00.

For `COc1cc(F)ccc1N(CC1CC1)[C@H]1CC[C@H](N(C)c2cc(=O)n(C)c3ccc(C#N)nc23)CC1` [Example 3Y, trans-8-[[4-(N-cyclopropylmethyl-N-4-fluoro-2-methoxyphenyl-anilino)cyclohexyl]-methyl-amino]-5-methyl-6-oxo-5,6-dihydro-1,5-naphthyridine-2-carbonitrile], the negative logarithm of the IC50 (pIC50) in assay [1] and in assay [2] was at most 6.00 each time.

Turning to `Cn1c(=O)c(C#N)c(N(C)[C@H]2CC[C@@H](N(CC3CC3)c3ccc(Cl)cc3)CC2)c2ncccc21` [Example 8, cis-4-((4-((4-chlorophenyl)(cyclopropylmethyl)amino)cyclohexyl)(methyl)amino)-1-methyl-2-oxo-1,2-dihydro-1,5-naphthyridine-3-carbonitrile], the pIC50 in assay [1] was 7.00 to 8.00; in assay [2], at most 6.00.

As for `Cc1ccc(N(CC2CCOC2)[C@H]2CC[C@@H](N(C)c3cc(=O)n(C)c4ccc(C#N)nc34)CC2)cc1OC(F)F` (stereo partly drawn) [Example 162, cis-8-((-4-((3-(difluoromethoxy)-4-methylphenyl) ((tetrahydrofuran-3-yl)methyl)amino)cyclohexyl) (methyl)amino)-5-methyl-6-oxo-5,6-dihydro-1,5-naphthyridine-2-carbonitrile], the negative logarithm of the IC50 (pIC50) in assay [1] and in assay [2] was 6.00 to 7.00 each time.

Turning to `COc1cc(F)ccc1N(C1CCC1)[C@H]1CC[C@@H](N(C)c2c(C#N)c(=O)n(C)c3ccc(C#N)nc23)CC1` [Example 18, cis-8-((4-(cyclobutyl(4-fluoro-2-methoxyphenyl)amino)cyclohexyl)(methyl)amino)-5-methyl-6-oxo-5,6-dihydro-1,5-naphthyridine-2,7-dicarbonitrile], the pIC50 in assay [1] and in assay [2] was 6.00 to 7.00 throughout.

Take `COc1cc(N(CC2CC2)[C@H]2CC[C@H](N(C)c3cc(=O)n(C)c4ccc(C#N)nc34)CC2)cc(F)c1F` [Example 95]: the pIC50 was at most 6.00 in assay [1] and 6.00 to 7.00 in assay [2].

Regarding `Cn1c(=O)c(C#N)c(N(C)[C@H]2CC[C@@H](N(CC3CC3)c3cccc(F)c3)CC2)c2nc(C#N)ccc21` [Example 26, cis-8-((4-((cyclopropylmethyl)(3-fluorophenyl)amino)cyclohexyl)(methyl)amino)-5-methyl-6-oxo-5,6-dihydro-1,5-naphthyridine-2,7-dicarbonitrile], the results for the pIC50 in assay [1] and in assay [2] were 7.00 to 8.00 and 6.00 to 7.00, respectively.

Turning to `CN(c1c(C#N)c(=O)n(C)c2ccc(C#N)nc12)C1CCC(N(CC2CCC2)c2ccc(CN3CCOCC3)cc2)CC1` (single isomer, unassigned) [Example 190, (cis or trans)-8-((4-((cyclobutylmethyl)(4-(morpholinomethyl)phenyl)amino)cyclohexyl) (methyl)amino)-5-methyl-6-oxo-5,6-dihydro-1,5-naphthyridine-2,7-dicarbonitrile], the pIC50 in assay [1] is 7.00 to 8.00; in assay [2] it was at most 6.00.

Regarding `Cn1c(=O)c(C#N)c(N(C)[C@H]2CC[C@@H](N(C[C@@H]3CCCOC3)c3ccc(F)cc3)CC2)c2nc(C#N)ccc21` [Example 69], the negative-log IC50 (pIC50) in assay [1] and in assay [2] was 7.00 to 8.00 each time.

As for `COc1ccc(N(C2CC2)[C@H]2CC[C@H](N(C)c3c(C#N)c(=O)n(C)c4ccc(Cl)nc34)CC2)nc1` [Example 3J, trans-6-chloro-4-((4-(cyclopropyl(5-methoxypyridin-2-yl)amino)cyclohexyl)(methyl)amino)-1-methyl-2-oxo-1,2-dihydro-1,5-naphthyridine-3-carbonitrile], the values for the negative-log IC50 (pIC50) in assay [1] and in assay [2] were 7.00 to 8.00 and 6.00 to 7.00, respectively.

As for `Cn1c(=O)c(C#N)c(N(C)[C@H]2CC[C@H](N(CC3CCC3)c3cccc4c3OCO4)CC2)c2nc(C#N)ccc21` [Example 112, trans-8-((-4-(benzo[d][1,3]dioxol-4-yl(cyclobutylmethyl)amino)cyclohexyl)(methyl)amino)-5-methyl-6-oxo-5,6-dihydro-1,5-naphthyridine-2,7-dicarbonitrile], the negative logarithm of the IC50 (pIC50) is 7.00 to 8.00 in assay [1] and 6.00 to 7.00 in assay [2].

On to `Cn1c(=O)c([N+](=O)[O-])c(N2CCC(N(CC3CC3)c3ccccc3)CC2)c2nc(C#N)ccc21` [Example 1B, 8-(4-((Cyclopropylmethyl)(phenyl)amino)piperidin-1-yl)-5-methyl-7-nitro-6-oxo-5,6-dihydro-1,5-naphthyridine-2-carbonitrile], for which the pIC50 in assay [1] was 7.00 to 8.00; in assay [2] it was 6.00 to 7.00.

Take `COc1cc(F)ccc1N(CC1CCC1)[C@H]1CC[C@H](N(C)c2c(C#N)c(=O)n(C)c3ccc(C#N)nc23)CC1` [Example 120, trans-8-((-4-((cyclobutylmethyl)(4-fluoro-2-methoxyphenyl)amino)cyclohexyl)(methyl)amino)-5-methyl-6-oxo-5,6-dihydro-1,5-naphthyridine-2,7-dicarbonitrile]: the figures for the pIC50 in assay [1] and in assay [2] were 6.00 to 7.00 and 7.00 to 8.00, respectively.

With `CC(C)CN(c1ccc(F)cc1)[C@H]1CC[C@@H](N(C)c2cc(=O)n(C)c3ccc(C#N)nc23)CC1` [Example 47, cis-8-((-4-((4-fluorophenyl)(isobutyl)amino)cyclohexyl)(methyl)amino)-5-methyl-6-oxo-5,6-dihydro-1,5-naphthyridine-2-carbonitrile], the figures for the negative logarithm of the IC50 (pIC50) in assay [1] and in assay [2] were 7.00 to 8.00 and at most 6.00, respectively.

Take `Cn1c(=O)c(F)c(N(C)[C@H]2CC[C@@H](N(CC3COCCO3)c3ccc(F)cc3F)CC2)c2nc(C#N)ccc21` (stereo partly drawn) [Example 205, cis-8-((-4-(((1,4-dioxan-2-yl)methyl)(2,4-difluorophenyl)amino)cyclohexyl)(methyl)amino)-7-fluoro-5-methyl-6-oxo-5,6-dihydro-1,5-naphthyridine-2-carbonitrile]: the negative-log IC50 (pIC50) in assay [1] and in assay [2] was 7.00 to 8.00 in each case.

Take `COc1cc(F)ccc1N(C)[C@H]1CC[C@@H](N(C)c2c(C#N)c(=O)n(C)c3ccc(Cl)nc23)CC1` [Example 45, cis-6-chloro-4-((4-((4-fluoro-2-methoxyphenyl) (methyl)amino)cyclohexyl)(methyl)amino)-1-methyl-2-oxo-1,2-dihydro-1,5-naphthyridine-3-carbonitrile]: the pIC50 was 7.00 to 8.00 in assay [1] and 6.00 to 7.00 in assay [2].

Consider `COc1cc(N(CC2CC2)[C@H]2CC[C@@H](N(C)c3c(C#N)c(=O)n(C)c4ccc(C#N)nc34)CC2)ccc1F` [Example 33, cis-8-((4-((cyclopropylmethyl)(4-fluoro-3-methoxyphenyl)amino)cyclohexyl)(methyl)amino)-5-methyl-6-oxo-5,6-dihydro-1,5-naphthyridine-2,7-dicarbonitrile], for which the pIC50 in assay [1] and in assay [2] was 6.00 to 7.00 throughout.

Regarding `Cc1cc(F)cc(N(CC2CCC2)[C@H]2CC[C@@H](N(C)c3c(C#N)c(=O)n(C)c4ccc(C#N)nc34)CC2)c1` [Example 113, cis-8-((-4-((cyclobutylmethyl)(3-fluoro-5-methylphenyl)amino)cyclohexyl)(methyl)amino)-5-methyl-6-oxo-5,6-dihydro-1,5-naphthyridine-2,7-dicarbonitrile], the negative-log IC50 (pIC50) in assay [1] and in assay [2] was 7.00 to 8.00 throughout.

Consider `Cn1c(=O)c(C#N)c(N(C)[C@H]2CC[C@@H](N(CC3CCC3)c3cc4c(cc3F)OCO4)CC2)c2nc(C#N)ccc21` [Example 160, cis-8-((-4-((cyclobutylmethyl)(6-fluorobenzo[d][1,3]dioxol-5-yl)amino)cyclohexyl)(methyl)amino)-5-methyl-6-oxo-5,6-dihydro-1,5-naphthyridine-2,7-dicarbonitrile], for which the pIC50 in assay [1] is above 8.00; in assay [2], 7.00 to 8.00.

In the case of `Cn1c(=O)cc(N(C)[C@H]2CC[C@@H](N(CC3CCC3)c3cccc4c3OCO4)CC2)c2nc(C#N)ccc21` [Example 111, cis-8-((-4-(benzo[d][1,3]dioxol-4-yl(cyclobutylmethyl)amino)cyclohexyl)(methyl)amino)-5-methyl-6-oxo-5,6-dihydro-1,5-naphthyridine-2-carbonitrile], the negative logarithm of the IC50 (pIC50) in assay [1] and in assay [2] was 6.00 to 7.00 in each case.
